Experimental data taken from US9850276B2, “Bidentate-binding modulators of LRRK2 and JNK kinases” (THE SCRIPPS RESEARCH INSTITUTE, priority 2013, dated 2017).
“And” between values parts separate entries of the source, which are not always exact repeats. Equal values may be shown once. Read-outs that look alike come from different tables or passages of the source. Where a SMILES comes first, the peptide text is derived from it. The star is where a group is joined. X1 = O=C(NCCCCN*)c1ccc(-c2n[nH]c3ccccc23)cc1; X2 = O=C(NCCCN*)c1ccc(-c2n[nH]c3ccccc23)cc1

How the values were obtained:
[1] = test system: infarct size in rat hearts; assay: I/R MI rat model, 30 minutes ischemia and 24 hours reperfusion; assay type: in vivo; settings: 40 mg/kg 3-aminobenzamide; p=0.048
Description: The in vivo efficacy of SR-3306 in anesthetized rats after 30 minutes ischemia and 24 hours reperfusion was evaluated.

JNK3 39-422 = molecular target: T1, JNK3 39-422 (Homo sapiens, UniProt P53779); assay: JIP FP displacement assay (TAMRA-JIP-11-mer peptide, fluorescence polarization); assay type: binding; settings: 2-3 determinations; * n = 2-4
T1 construct: with JNK3 39-422 and measuring fluorescence polarization (FP) changes
T1 sequence (P53779 39-422 isoform P53779-2): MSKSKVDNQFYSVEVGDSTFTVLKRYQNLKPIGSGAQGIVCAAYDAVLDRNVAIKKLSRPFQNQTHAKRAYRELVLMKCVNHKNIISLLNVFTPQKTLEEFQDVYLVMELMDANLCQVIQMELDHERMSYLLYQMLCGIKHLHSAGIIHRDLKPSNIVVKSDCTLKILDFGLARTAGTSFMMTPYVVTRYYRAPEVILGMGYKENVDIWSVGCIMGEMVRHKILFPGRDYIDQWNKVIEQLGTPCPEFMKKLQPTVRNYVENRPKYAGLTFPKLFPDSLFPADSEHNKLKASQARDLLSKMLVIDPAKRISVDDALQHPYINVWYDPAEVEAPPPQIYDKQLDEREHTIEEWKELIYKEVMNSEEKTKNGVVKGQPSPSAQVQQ
From the text: The biochemical assay for JIP displacement is centered on utilizing a TAMRA-JIP-11-mer peptide (TAMRA-RPKRPTTLNLF) with JNK3 39-422 and measuring fluorescence polarization (FP) changes in the presence and absence of small molecule inhibitors. This assay has been established in 96-well and 384-well format in our labs. Unlabeled JIP-peptide (RPKRPTTLNLF, SEQ ID:1) and compound 2 were used as positive controls.

JNK3 = JNK3 (Homo sapiens, UniProt P53779); assay: JNK3 enzyme activity assay; assay type: biochemical; settings: 2-3 determinations; SP600125 from 10 measurements; * n = 2-4
Sequence of JNK3 (P53779 1-422 isoform P53779-2): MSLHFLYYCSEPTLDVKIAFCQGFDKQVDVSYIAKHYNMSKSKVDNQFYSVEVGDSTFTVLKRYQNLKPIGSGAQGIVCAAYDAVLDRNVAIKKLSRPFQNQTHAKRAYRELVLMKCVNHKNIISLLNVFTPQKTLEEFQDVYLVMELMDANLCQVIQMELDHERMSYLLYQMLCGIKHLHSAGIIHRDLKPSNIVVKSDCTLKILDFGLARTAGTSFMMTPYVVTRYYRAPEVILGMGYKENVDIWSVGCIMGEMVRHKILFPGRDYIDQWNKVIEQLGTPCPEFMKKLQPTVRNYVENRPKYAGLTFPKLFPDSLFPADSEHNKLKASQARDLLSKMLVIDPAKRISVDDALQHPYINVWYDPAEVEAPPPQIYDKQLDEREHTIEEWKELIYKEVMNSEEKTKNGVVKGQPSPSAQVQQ

JNK1 = JNK1 (Homo sapiens, UniProt P45983); assay: JNK1 enzyme assay; assay type: biochemical; settings: 2-3 determinations; SP600125 from 10 measurements
Sequence of JNK1 (P45983 whole entry): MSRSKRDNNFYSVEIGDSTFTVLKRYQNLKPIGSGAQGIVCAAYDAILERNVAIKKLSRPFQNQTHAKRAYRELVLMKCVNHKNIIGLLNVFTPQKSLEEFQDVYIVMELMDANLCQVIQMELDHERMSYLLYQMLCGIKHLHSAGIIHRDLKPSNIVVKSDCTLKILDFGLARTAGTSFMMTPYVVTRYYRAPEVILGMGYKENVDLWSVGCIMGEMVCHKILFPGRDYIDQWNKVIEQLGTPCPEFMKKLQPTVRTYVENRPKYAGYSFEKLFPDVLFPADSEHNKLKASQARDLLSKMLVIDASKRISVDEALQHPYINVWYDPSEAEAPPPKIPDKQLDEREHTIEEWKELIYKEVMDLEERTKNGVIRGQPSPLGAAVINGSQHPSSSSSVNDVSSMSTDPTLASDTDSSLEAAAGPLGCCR

[2] = test system: c-jun phosphorylation in H9C2 cardiomyocyte cells; assay: In-cell Western detection of c-Jun phosphorylation; assay type: cell-based; settings: for IC50: n = 4, read-out: Cell-based p-c-Jun inhibition (IC50)
Description: The IC50 was calculated to be 2.8±0.5 μM. Standard error is given.
(§1) To analyze the cell activity of compound 6 and its analogs an In-cell Western detection assay was set up where phosphorylation of c-Jun was monitored. […] This finding was corroborated by Western blot analysis in H9C2 and N2a cells (FIG. 7). Considering the reasonably high biochemical kinase selectivity (coupled with its low μM cell potency), compound 6 is believed to be a good in vitro probe molecule for studying the biology and the signal pathways related to JNK/LRRK2 (and mutant LRRK2s).
Table 2, above, presents the inhibition of c-Jun phosphorylation in H9c2 cells for six JNK bidentate inhibitors, compounds 5, 6, 9, 10, 12, and 13.

[3] = test system: SHSY5Y cells transfected with LRRK2:G2019S; assay: LRRK2:G2019S-induced cell loss (cell viability); assay type: cell-based; settings: Homo sapiens, SH-SY5Y; 10 μM compound; p<0.05
From the text: (§2) FIGS. 5A, 5B, and 5C, depict the results of assays to determine the protection of LRRK2:G2019S-induced mitochondrial dysfunction and cell death by compound 6. Significance between LRRK2:WT and LRRK2:G2019S are indicated by a single asterisk (p<0.05) (*), while differences between cells expressing LRRK2:G2019S and compound 6 treated cells expressing LRRK2:G2019S are indicated by a double asterisk (p<0.05) (**). Error bars denote standard deviation.
(§3) We next tested if compound 6 was potent in cell-based functional assays that measured reactive oxygen species (ROS) generation, mitochondrial membrane potential (MMP), and cell viability. We had previously shown that JNK inhibition had significant effects on all of these mitochondrial functional parameters in HeLa cells. FIG. 5 presents the effects that compound 6 had on all of these measures in the human dopaminergic SHSY5Y cell line. […] Finally, LRRK2:G2019S-induced cell loss was measured showing ˜50% less viable cells (FIG. 5C). In the presence of 10 μM compound 6, cell viability returned to >95% (p<0.05).

96 kinases = assay: Ambit binding screen; settings: 10 μM
Description: To augment this we screened an additional 96 kinases at 10 μM in the Ambit binding screen to get a broader sense for the selectivity of this compound. […] Since minimal SAR optimizations have been made on this probe molecule it is believed that high selectivity for this class of inhibitors could easily be achieved by exploiting the bidentate binding character of this class.

LRRK2-G2019S = LRRK2-G2019S (Homo sapiens, UniProt Q5S007, G2019S); assay: LRRK2-G2019S enzyme assay (titration); assay type: biochemical
Sequence of LRRK2-G2019S (Q5S007 whole entry G2019S): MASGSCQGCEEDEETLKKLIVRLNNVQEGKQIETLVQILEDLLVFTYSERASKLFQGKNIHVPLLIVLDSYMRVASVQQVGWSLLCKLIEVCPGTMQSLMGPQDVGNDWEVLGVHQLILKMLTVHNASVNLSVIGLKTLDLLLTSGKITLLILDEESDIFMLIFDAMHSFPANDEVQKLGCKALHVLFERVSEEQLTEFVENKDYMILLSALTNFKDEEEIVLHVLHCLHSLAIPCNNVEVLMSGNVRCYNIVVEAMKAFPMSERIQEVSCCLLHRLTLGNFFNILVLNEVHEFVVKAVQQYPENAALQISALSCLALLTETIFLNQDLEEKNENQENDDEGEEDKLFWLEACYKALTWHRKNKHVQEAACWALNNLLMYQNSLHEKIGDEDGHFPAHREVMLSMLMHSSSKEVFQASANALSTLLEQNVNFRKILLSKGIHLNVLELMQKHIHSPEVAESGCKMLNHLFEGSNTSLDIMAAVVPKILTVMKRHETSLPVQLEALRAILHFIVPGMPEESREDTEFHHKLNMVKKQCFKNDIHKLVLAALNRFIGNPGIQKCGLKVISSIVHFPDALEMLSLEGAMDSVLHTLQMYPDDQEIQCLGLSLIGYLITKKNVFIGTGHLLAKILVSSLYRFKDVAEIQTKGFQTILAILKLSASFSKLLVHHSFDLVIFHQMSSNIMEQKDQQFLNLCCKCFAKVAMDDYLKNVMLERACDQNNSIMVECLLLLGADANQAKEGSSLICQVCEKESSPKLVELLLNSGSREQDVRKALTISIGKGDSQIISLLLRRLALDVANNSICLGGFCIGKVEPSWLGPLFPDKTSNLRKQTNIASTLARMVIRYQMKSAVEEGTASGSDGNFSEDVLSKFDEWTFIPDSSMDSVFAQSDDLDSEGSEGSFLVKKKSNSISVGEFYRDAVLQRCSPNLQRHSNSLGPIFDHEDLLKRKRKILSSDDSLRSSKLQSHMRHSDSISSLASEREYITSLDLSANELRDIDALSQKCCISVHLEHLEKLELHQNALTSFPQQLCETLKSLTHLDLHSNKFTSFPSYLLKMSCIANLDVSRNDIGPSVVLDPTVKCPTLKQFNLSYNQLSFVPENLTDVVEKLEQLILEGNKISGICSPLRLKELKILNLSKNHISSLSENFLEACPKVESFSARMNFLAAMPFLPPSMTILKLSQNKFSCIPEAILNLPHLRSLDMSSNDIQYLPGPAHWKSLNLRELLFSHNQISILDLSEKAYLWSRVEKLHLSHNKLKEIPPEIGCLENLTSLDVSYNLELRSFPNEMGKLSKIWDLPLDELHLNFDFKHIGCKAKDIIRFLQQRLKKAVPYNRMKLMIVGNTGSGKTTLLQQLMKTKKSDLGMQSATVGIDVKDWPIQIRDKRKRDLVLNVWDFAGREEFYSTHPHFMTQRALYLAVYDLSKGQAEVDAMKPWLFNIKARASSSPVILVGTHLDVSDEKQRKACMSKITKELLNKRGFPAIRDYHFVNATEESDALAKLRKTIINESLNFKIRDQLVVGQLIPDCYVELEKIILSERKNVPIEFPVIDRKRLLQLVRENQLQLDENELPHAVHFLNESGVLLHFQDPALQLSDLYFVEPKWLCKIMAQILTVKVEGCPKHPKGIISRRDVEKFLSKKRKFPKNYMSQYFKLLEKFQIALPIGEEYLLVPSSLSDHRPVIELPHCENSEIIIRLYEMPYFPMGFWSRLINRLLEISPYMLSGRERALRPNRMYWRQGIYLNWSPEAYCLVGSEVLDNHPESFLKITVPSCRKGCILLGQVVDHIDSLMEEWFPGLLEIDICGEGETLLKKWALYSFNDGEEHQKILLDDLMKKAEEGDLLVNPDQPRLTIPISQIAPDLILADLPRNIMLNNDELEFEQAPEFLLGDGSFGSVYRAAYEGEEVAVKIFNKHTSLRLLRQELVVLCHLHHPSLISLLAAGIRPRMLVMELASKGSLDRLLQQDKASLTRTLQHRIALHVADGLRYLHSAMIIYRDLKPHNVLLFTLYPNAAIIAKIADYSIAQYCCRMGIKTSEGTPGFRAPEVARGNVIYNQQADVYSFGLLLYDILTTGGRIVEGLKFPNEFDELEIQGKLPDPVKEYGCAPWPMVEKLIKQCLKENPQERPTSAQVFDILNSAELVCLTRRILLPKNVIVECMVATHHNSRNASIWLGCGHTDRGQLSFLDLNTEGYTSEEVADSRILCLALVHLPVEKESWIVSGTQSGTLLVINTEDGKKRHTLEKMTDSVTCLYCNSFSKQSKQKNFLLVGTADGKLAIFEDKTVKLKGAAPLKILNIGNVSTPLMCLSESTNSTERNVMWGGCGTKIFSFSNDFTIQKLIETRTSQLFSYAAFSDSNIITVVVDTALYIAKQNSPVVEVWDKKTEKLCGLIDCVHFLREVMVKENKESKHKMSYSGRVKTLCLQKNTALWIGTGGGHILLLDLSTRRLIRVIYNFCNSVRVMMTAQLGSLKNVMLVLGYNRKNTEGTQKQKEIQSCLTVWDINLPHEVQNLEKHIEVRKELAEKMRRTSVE
From the text: (§4) Strong inhibition of LRRK2 by compound 6 was also found.

[4] = test system: c-jun phosphorylation in H9C2 and N2a cells; assay: Western blot analysis of c-jun phosphorylation; assay type: cell-based
From the text: as §1

CLK1 = CLK1 (Homo sapiens, UniProt P49759); assay: Enzyme inhibition profiling, panel of 21 kinases; assay type: biochemical
Sequence of CLK1 (P49759 whole entry): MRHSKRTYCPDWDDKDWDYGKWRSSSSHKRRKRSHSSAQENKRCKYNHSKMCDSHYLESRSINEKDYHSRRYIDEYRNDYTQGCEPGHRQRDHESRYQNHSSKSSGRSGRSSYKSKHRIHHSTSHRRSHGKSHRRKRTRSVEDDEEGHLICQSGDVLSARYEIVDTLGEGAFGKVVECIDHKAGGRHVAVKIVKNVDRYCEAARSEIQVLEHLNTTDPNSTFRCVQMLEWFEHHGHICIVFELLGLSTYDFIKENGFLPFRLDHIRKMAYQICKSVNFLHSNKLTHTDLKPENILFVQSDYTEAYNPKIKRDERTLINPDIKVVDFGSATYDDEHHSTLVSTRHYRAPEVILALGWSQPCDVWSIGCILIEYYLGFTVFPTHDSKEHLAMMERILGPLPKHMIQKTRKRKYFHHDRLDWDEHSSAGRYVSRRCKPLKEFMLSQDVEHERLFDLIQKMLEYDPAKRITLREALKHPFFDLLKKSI

JNK3α1 = JNK3α1 (Homo sapiens, UniProt P53779); assay: ATP competitive binding / mechanism of inhibition studies; assay type: biochemical; settings: eight concentrations of compound; p<0.05
Sequence of JNK3α1 (P53779 1-422 isoform P53779-2): as the sequence (P53779 1-422 isoform P53779-2) above
From the text: (A) Non-linear least squares fitting of the data using an equation for competitive inhibition at eight concentrations of compound 6. (B) Double reciprocal plots and linear regression of the data shown in A.
The detection method in the JNK3 enzyme assay allows for the detection of a compound that inhibits by a variety of mechanisms including: substrate-site binding, allosteric site binding, and ATP-competitive binding. […] However, if the inhibition of kinase activity by 6 was only through substrate site binding, its IC50 value in JNK3 activity assay should be similar to that in JIP displacement assay. […] One possible interaction besides JIP site binding was ATP hinge binding because the head indazole moiety is a well-known hinge binder.

wild-type LRRK2 = wild-type LRRK2 (Homo sapiens, UniProt Q5S007); assay: LRRK2 enzyme assay (titration); assay type: biochemical
Sequence of wild-type LRRK2 (Q5S007 whole entry): as the sequence (Q5S007 whole entry G2019S) above, with S2019G counted along it
From the text: as §4

[5] = test system: SHSY5Y cells transfected with LRRK2:G2019S; assay: LRRK2:G2019S-induced decrease in mitochondrial membrane potential; assay type: cell-based, human; settings: 10 μM compound
From the text: as §2, §3

[6] = test system: SHSY5Y cells transfected with LRRK2:G2019S; assay: LRRK2:G2019S-induced ROS generation (Mitosox fluorescence); assay type: cell-based, human; settings: 1 μM or 10 μM compound; p<0.05
From the text: as §2, §3

LRRK2 = LRRK2 (Homo sapiens, UniProt Q5S007); assay: Enzyme inhibition profiling, panel of 21 kinases; assay type: biochemical; settings: 10 μM inhibitor concentration
Sequence of LRRK2 (Q5S007 whole entry): as the sequence (Q5S007 whole entry G2019S) above, with S2019G counted along it

JNKs = assay: Enzyme inhibition profiling, panel of 21 kinases; assay type: biochemical; settings: 10 μM inhibitor concentration
[7] = Rattus norvegicus, H9c2, H9c2 cells

Compound	IC50 (JNK3 39-422)	IC50 (JNK3)	IC50 (JNK1) [µM]	IC50 [2, 7] [µM]	other results
NC(=O)c1cccc(N)c1 [3-aminobenzamide]					infarct size (IS) [1]: 26±1.5 % of AAR
CC(=O)N[C@@H](CC(C)C)C(=O)N[C@@H](CC(N)=O)C(=O)N[C@@H](CC(C)C)C(=O)NCC(=O)NCC(=O)NCCCNC(=O)c1ccc(-c2n[nH]c3ccccc23)cc1 [Compound 1] (Ac-LNLGG-X2)	0.76 µM	0.0378 ± 0.0118 µM			
CC(C)C[C@H](NC(=O)[C@H](CC(N)=O)NC(=O)[C@@H](N)CC(C)C)C(=O)NCC(=O)NCC(=O)NCCCNC(=O)c1ccc(-c2n[nH]c3ccccc23)cc1 [Compound 2] (H-LNLGG-X2)	0.624 µM	0.136 ± 0.0359 µM			
CC(=O)N[C@@H](CC(C)C)C(=O)N[C@@H](CC(N)=O)C(=O)N[C@@H](CC(C)C)C(=O)NCC(=O)NCCCCNC(=O)c1ccc(-c2n[nH]c3ccccc23)cc1 [Compound 3, (S)—N1-((S)-1-((2-((4-(4-(1H-indazol-3-yl)benzamido)butyl)amino)-2-oxoethyl)amino)-4-methyl-1-oxopentan-2-yl)-2-((S)-2-acetamido-4-methylpentanamido)succinamide] (Ac-LNLG-X1)	0.62 µM	0.157 ± 0.162 µM	0.318 ± 0.0119		
CC(C)CN(CC(=O)NCCCCCCNC(=O)c1ccc(-c2n[nH]c3ccccc23)cc1)C(=O)CNC(=O)C1COc2ccccc2O1 (centres unmarked) [Compound 5, N-(2-((2-((6-(4-(1H-indazol-3-yl)benzamido)hexyl)amino)-2-oxoethyl)(isobutyl)amino)-2-oxoethyl)-2,3-dihydrobenzo[b][1,4]dioxine-2-carboxamide]	0.363 µM	0.0634 ± 0.0104 µM	0.164 ± 0.0217	37.4 ± 22.3	
COc1ccc2c(c1)CC(C(=O)NCC(=O)N(CC(=O)NCCCCCCNC(=O)c1ccc(-c3n[nH]c4ccccc34)cc1)CC(C)C)CO2 (centres unmarked) [Compound 6, N-(2-((2-((6-(4-(1H-indazol-3-yl)benzamido)hexyl)amino)-2-oxoethyl)(isobutyl)amino)-2-oxoethyl)-6-methoxychroman-3-carboxamide]	0.336 µM and ~0.336 µM	0.012 µM and 0.0116 µM	0.109 ± 0.0061	2.8 ± 0.5	viability at 10 µM [3]: > 95%; number of the 96 kinases with greater than 90% binding (96 kinases): six; share of kinases inhibited (96 kinases): ~5%; IC50 (LRRK2-G2019S): 0.099 µM and ~0.1 µM; c-jun phosphorylation by Western blot [4]: inhibition of the c-jun phorphorylation; concentration from which c-Jun phosphorylation began to be inhibited significantly ([2]; H9C2 cells): ~100 nM; inhibition at 10 µM (CLK1; 10 μM inhibitor concentration): 50%; IC50 (CLK1; inferred from 50% inhibition at 10 μM): ~10 µM; mechanism of inhibition versus ATP (JNK3α1): competitive inhibitor of ATP; IC50 (wild-type LRRK2; read-out: wild-type LRRK2 IC50): 0.118 µM and ~0.1 µM; protection against decrease in MMP [5]: returned MMP dissipation to untreated levels; ROS levels [6]: reduced the ROS levels in a statistically significant manner; inhibition at 10 µM (LRRK2): 94%; inhibition of JNKs (JNKs): ~100%
COc1ccc2c(c1)CC(C(=O)N[C@@H](C)C(=O)N(CC(=O)NCCCCCCNC(=O)c1ccc(-c3n[nH]c4ccccc34)cc1)CC(C)C)CO2 (stereo partly drawn) [Compound 7, N—((S)-1-((2-((6-(4-(1H-indazol-3-yl)benzamido)hexyl)amino)-2-oxoethyl)(isobutyl)amino)-1-oxopropan-2-yl)-6-methoxychroman-3-carboxamide]	1.05 µM	0.127 ± 0.0303 µM	0.154 ± 0.0371		
COc1ccc2c(c1)CC(C(=O)NCC(=O)N(CC(=O)NCCCCCCNC(=O)c1ccc3[nH]ncc3c1)CC(C)C)CO2 (centres unmarked) [Compound 8, N-(6-(2-(N-isobutyl-2-(6-methoxychroman-3-carboxamido)acetamido)acetamido)hexyl)-1H-indazole-5-carboxamide]		3.15 µM			
CC(C)CN(CC(=O)NCCCCNC(=O)c1ccc(-c2n[nH]c3ccccc23)cc1)C(=O)CNC(=O)c1cccc(Cl)c1 [Compound 12]	0.52 ± 0.17 µM	0.184 ± 0.038 µM		19.8 ± 7.8	
CC(C)CN(CC(=O)NCCCCNC(=O)c1ccc(-c2n[nH]c3ccccc23)cc1)CC(C)C [Compound 13]	1.73 ± 0.635 µM	0.374 ± 0.227 µM		9.6 ± 3	

Now from value to molecule, other results behind:

IC50 (JNK3 39-422)	IC50 (JNK3)	IC50 (JNK1) [µM]	Compound	IC50 [2, 7] [µM]	other results
0.907 µM	0.147 ± 0.0516 µM	0.685 ± 0.121	CC(C)CN(CC(=O)NCCCCCCNC(=O)c1ccc(-c2n[nH]c3ccccc23)cc1)C(=O)CNC(=O)c1ccc2c(c1)OCCO2 [Compound 4, N-(2-((2-((6-(4-(1H-indazol-3-yl)benzamido)hexyl)amino)-2-oxoethyl)(isobutyl)amino)-2-oxoethyl)-2,3-dihydrobenzo[b][1,4]dioxine-6-carboxamide]		
0.3 ± 0.187 µM	0.246 ± 0.227 µM		COc1ccc2c(c1)CC(C(=O)N(CC(=O)NCCCCNC(=O)c1ccc(-c3n[nH]c4ccccc34)cc1)CC(C)C)CO2 (centres unmarked) [Compound 9]	80.4 ± 41.4	
0.363 ± 0.272 µM	0.065 µM		CC(C)CN(CC(=O)NCCCCNC(=O)c1ccc(-c2n[nH]c3ccccc23)cc1)C(=O)c1ccc2c(c1)OCCO2 [Compound 10]	~1	IC50 ([2]; H9c2 cells): 1.4 ± 0.34 µM; IC50 (wild-type LRRK2; LRRK2 form not stated, only hit in profiling against 18 kinases at 10 μM, read-out: LRRK2 IC50): 0.08 µM
0.781 ± 0.007 µM	0.086 ± 0.037 µM		CC(C)CN(CCCCCCNC(=O)c1ccc(-c2n[nH]c3ccccc23)cc1)C(=O)c1ccc2c(c1)OCCO2 [Compound 11]		
